Measurements: patent US11236087B2, “Highly active pyrazolo-piperidine substituted indole-2-carboxamides active against the hepatitis B virus (HBV)” (AiCuris GmbH & Co. KG, priority 2017, dated 2022)

What was measured:
[1] = Cell viability assay (AlamarBlue) in HepAD38 cells; conditions: human
[2] = test system: HBV; experiment: Determination of HBV DNA from the supernatants of HepAD38 cells (anti-HBV activity); type: cell-based, hepatitis B virus; conditions: Hepatitis B virus, 144 h; HBV DNA in HepAD38 supernatant, day 6, qPCR; read-out: Cell Activity (EC50)
Summary of the method: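 HepAD38 cells, tetracycline withdrawn to induce HBV, treated with serial half-log compound dilutions; on day 6 HBV DNA purified from filtered supernatant and quantified by real-time PCR against HBV plasmid standards; EC50 from relative copy numbers by non-linear regression, three experiments in triplicate.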

[3] = target: T1, HBV core protein (UniProt P03146); experiment: Biochemical capsid assembly assay (fluorescence quenching); parameters: species or system hepatitis B virus; conditions: read-out: Assembly Activity (IC50); BODIPY-FL labelled core protein, 300 μM NaCl, read 6 min after start
T1 construct: fused on or other part: BODIPY-FL maleimide label on the C-terminal Cys150
Protocol: Biochemical Capsid Assembly Assay
The screening for assembly effector activity was done based on a fluorescence quenching assay published by Zlotnick et al. (2007). The C-terminal truncated core protein containing 149 amino acids of the N-terminal assembly domain fused to a unique cysteine residue at position 150 and was expressed in E. coli using the pET expression system (Merck Chemicals, Darmstadt). Purification of core dimer protein was performed using a sequence of size exclusion chromatography steps. In brief, the cell pellet from 1 L BL21 (DE3) Rosetta2 culture expressing the coding sequence of core protein cloned NdeI/XhoI into expression plasmid pET21b was treated for 1 h on ice with a native lysis buffer (Qproteome Bacterial Protein Prep Kit; Qiagen, Hilden). After a centrifugation step the supernatant was precipitated during 2 h stirring on ice with 0.23 g/ml of solid ammonium sulfate. Following further centrifugation the resulting pellet was resolved in buffer A (100 mM Tris, pH 7.5; 100 mM NaCl; 2 mM DTT) and was subsequently loaded onto a buffer A equilibrated CaptoCore 700 column (GE HealthCare, Frankfurt). The column flow through containing the assembled HBV capsid was dialyzed against buffer N (50 mM NaHCO3 pH 9.6; 5 mM DTT) before urea was added to a final concentration of 3M to dissociate the capsid into core dimers for 1.5 h on ice. The protein solution was then loaded onto a 1 L Sephacryl S300 column. After elution with buffer N core dimer containing fractions were identified by SDS-PAGE and subsequently pooled and dialyzed against 50 mM HEPES pH 7.5; […]. To improve the assembly capacity of the purified core dimers a second round of assembly and disassembly starting with the addition of 5 M NaCl and including the size exclusion chromatography steps described above was performed. From the last chromatography step core dimer containing fractions were pooled and stored in aliquots at concentrations between 1.5 to 2.0 mg/ml at −80° C.
Immediately before labelling the core protein was reduced by adding freshly prepared DTT in a final concentration of 20 mM. After 40 min incubation on ice storage buffer and DTT was removed using a Sephadex G-25 column (GE HealthCare, Frankfurt) and 50 mM HEPES, pH 7.5. For labelling 1.6 mg/ml core protein was incubated at 4° C. and darkness overnight with BODIPY-FL maleimide (Invitrogen, Karlsruhe) in a final concentration of 1 mM. After labelling the free dye was removed by an additional desalting step using a Sephadex G-25 column. Labelled core dimers were stored in aliquots at 4° C. In the dimeric state the fluorescence signal of the labelled core protein is high and is quenched during the assembly of the core dimers to high molecular capsid structures. The screening assay was performed in black 384 well microtiter plates in a total assay volume of 10 μl using 50 mM HEPES pH 7.5 and 1.0 to 2.0 μM labelled core protein. Each screening compound was added in 8 different concentrations using a 0.5 log-unit serial dilution starting at a final concentration of 100 μM, 31.6 μM or 10 μM, In any case the DMSO concentration over the entire microtiter plate was 0.5%. The assembly reaction was started by the injection of NaCl to a final concentration of […] which induces the assembly process to approximately 25% of the maximal quenched signal. 6 min after starting the reaction the fluorescence signal was measured using a Clariostar plate reader (BMG Labtech, Ortenberg) with an excitation of 477 nm and an emission of 525 nm. As 100% and 0% assembly control HEPES buffer containing 2.5 M and 0 M NaCl was used. Experiments were performed thrice in triplicates. EC50 values were calculated by non-linear regression analysis using the Graph Pad Prism 6 software (GraphPad Software, La Jolla, USA).

T1 sequence (P03146 whole entry, looked up, the tested form may be a part): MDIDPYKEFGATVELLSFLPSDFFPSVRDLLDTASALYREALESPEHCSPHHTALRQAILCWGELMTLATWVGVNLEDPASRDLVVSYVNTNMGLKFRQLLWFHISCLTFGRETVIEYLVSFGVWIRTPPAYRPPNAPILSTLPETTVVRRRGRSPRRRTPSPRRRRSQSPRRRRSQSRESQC

Row | Structure (SMILES) | CC50 at 6 days [1] | EC50 [2] | IC50 [3]
1 | O=C(c1cc2c(C(F)(F)F)cccc2[nH]1)N1CCc2n[nH]c(-c3cscn3)c2C1 [Example 21, 2-[3-(1,3-thiazol-4-yl)-2H,4H,5H,6H,7H-pyrazolo[4,3-c]pyridine-5-carbonyl]-4-(trifluoromethyl)-1H-indole] | > 10 µM | < 1 µM | < 100 µM
2 | O=C(c1cc2c(F)c(F)ccc2[nH]1)N1CCc2n[nH]c(-c3cscn3)c2C1 [Example 22, 4,5-difluoro-2-[3-(1,3-thiazol-4-yl)-2H,4H,5H,6H,7H-pyrazolo[4,3-c]pyridine-5-carbonyl]-1H-indole] | > 10 µM | < 1 µM | < 5 µM
3 | Cc1cccc2[nH]c(C(=O)N3CCc4n[nH]c(-c5cscn5)c4C3)cc12 [Example 23, 4-methyl-2-[3-(1,3-thiazol-4-yl)-2H,4H,5H,6H,7H-pyrazolo[4,3-c]pyridine-5-carbonyl]-1H-indole] | > 10 µM | < 1 µM | < 5 µM
4 | Cc1cc(F)cc2[nH]c(C(=O)N3CCc4n[nH]c(-c5cscn5)c4C3)cc12 [Example 26, 6-fluoro-4-methyl-2-[3-(1,3-thiazol-4-yl)-2H,4H,5H,6H,7H-pyrazolo[4,3-c]pyridine-5-carbonyl]-1H-indole] | > 10 µM | < 1 µM | < 5 µM
5 | CN(CCO)C(=O)c1n[nH]c2c1CN(C(=O)c1cc3c(C(C)(F)F)cc(F)cc3[nH]1)CC2 [Example 27, 5-[4-(1,1-difluoroethyl)-6-fluoro-1H-indole-2-carbonyl]-N-(2-hydroxyethyl)-N-methyl-1H,4H,5H,6H,7H-pyrazolo[4,3-c]pyridine-3-carboxamide] | > 10 µM | < 1 µM | < 5 µM
6 | CN(CCO)C(=O)c1n[nH]c2c1CN(C(=O)c1cc3c(F)cc(F)cc3[nH]1)CC2 [Example 28, 5-(4,6-difluoro-1H-indole-2-carbonyl)-N-(2-hydroxyethyl)-N-methyl-1H,4H,5H,6H,7H-pyrazolo[4,3-c]pyridine-3-carboxamide] | > 10 µM | < 1 µM | < 5 µM
7 | CN(CCO)C(=O)c1n[nH]c2c1CN(C(=O)c1cc3ccc(Br)cc3[nH]1)CC2 [Example 29, 5-(6-bromo-1H-indole-2-carbonyl)-N-(2-hydroxyethyl)-N-methyl-1H,4H,5H,6H,7H-pyrazolo[4,3-c]pyridine-3-carboxamide] | > 10 µM | < 1 µM | < 5 µM
8 | CN(CCO)C(=O)c1n[nH]c2c1CN(C(=O)c1cc3c(Br)cccc3[nH]1)CC2 [Example 30, 5-(4-bromo-1H-indole-2-carbonyl)-N-(2-hydroxyethyl)-N-methyl-1H,4H,5H,6H,7H-pyrazolo[4,3-c]pyridine-3-carboxamide] | > 10 µM | < 1 µM | < 5 µM
9 | CNC(C)(C)COC(=O)c1n[nH]c2c1CN(C(=O)c1cc3ccccc3[nH]1)CC2 [Example 31, 2-methyl-2-(methylamino)propyl 5-(1H-indole-2-carbonyl)-1H,4H,5H,6H,7H-pyrazolo[4,3-c]pyridine-3-carboxylate] | > 100 µM | 1 to 25 µM | 5 to 10 µM
10 | CNC1(COC(=O)c2n[nH]c3c2CN(C(=O)c2cc4ccccc4[nH]2)CC3)CC1 [Example 32, [1-(methylamino)cyclopropyl]methyl 5-(1H-indole-2-carbonyl)-1H,4H,5H,6H,7H-pyrazolo[4,3-c]pyridine-3-carboxylate] | > 100 µM | < 1 µM | < 5 µM
11 | CN(C(=O)c1n[nH]c2c1CN(C(=O)c1cc3ccccc3[nH]1)CC2)C1(CO)CC1 [Example 33, N-[1-(hydroxymethyl)cyclopropyl]-5-(1H-indole-2-carbonyl)-N-methyl-1H,4H,5H,6H,7H-pyrazolo[4,3-c]pyridine-3-carboxamide] | > 10 µM | < 1 µM | < 5 µM
12 | CC1(O)CN(C(=O)c2n[nH]c3c2CN(C(=O)c2cc4ccccc4[nH]2)CC3)C1 [Example 34, 1-[5-(1H-indole-2-carbonyl)-1H,4H,5H,6H,7H-pyrazolo[4,3-c]pyridine-3-carbonyl]-3-methylazetidin-3-ol] | > 15 µM | < 1 µM | < 100 µM
13 | CC1c2c(-c3cscn3)n[nH]c2CCN1C(=O)c1cc2ccccc2[nH]1 (stereo not drawn) [Example 36, 2-[4-methyl-3-(1,3-thiazol-4-yl)-1H,4H,5H,6H,7H-pyrazolo[4,3-c]pyridine-5-carbonyl]-1H-indole] | 88 µM | < 1 µM | 5 to 10 µM
14 | CC1Cc2[nH]nc(-c3cscn3)c2CN1C(=O)c1cc2c(Cl)cc(F)cc2[nH]1 (stereo not drawn) [Example 37, 4-chloro-6-fluoro-2-[6-methyl-3-(1,3-thiazol-4-yl)-1H,4H,5H,6H,7H-pyrazolo[4,3-c]pyridine-5-carbonyl]-1H-indole] | > 32 µM | < 1 µM | 5 to 10 µM
15 | CC1Cc2[nH]nc(-c3cscn3)c2CN1C(=O)c1cc2ccccc2[nH]1 (stereo not drawn) [Example 38, 2-[6-methyl-3-(1,3-thiazol-4-yl)-1H,4H,5H,6H,7H-pyrazolo[4,3-c]pyridine-5-carbonyl]-1H-indole] | 100 µM | < 1 µM | < 5 µM
16 | CC(C)(O)C1CN(C(=O)c2n[nH]c3c2CN(C(=O)c2cc4ccccc4[nH]2)CC3)C1 [Example 39, 2-{1-[5-(1H-indole-2-carbonyl)-1H,4H,5H,6H,7H-pyrazolo[4,3-c]pyridine-3-carbonyl]azetidin-3-yl}propan-2-ol] | > 32 µM | 1 to 25 µM | < 100 µM
17 | O=C(c1cc2ccccc2[nH]1)N1CCc2[nH]nc(C(=O)N3CC(O)C3)c2C1 [Example 40, 1-[5-(1H-indole-2-carbonyl)-1H,4H,5H,6H,7H-pyrazolo[4,3-c]pyridine-3-carbonyl]azetidin-3-ol] | > 100 µM | 1 to 25 µM | < 5 µM
18 | CC(O)CN(C)C(=O)c1n[nH]c2c1CN(C(=O)c1cc3ccccc3[nH]1)CC2 (stereo not drawn) [Example 41, N-(2-hydroxypropyl)-5-(1H-indole-2-carbonyl)-N-methyl-1H,4H,5H,6H,7H-pyrazolo[4,3-]pyridine-3-carboxamide] | > 100 µM | < 1 µM | < 5 µM
19 | CC(CO)N(C)C(=O)c1n[nH]c2c1CN(C(=O)c1cc3ccccc3[nH]1)CC2 (stereo not drawn) [Example 42, N-(1-hydroxypropan-2-yl)-5-(1H-indole-2-carbonyl)-N-methyl-1H,4H,5H,6H,7H-pyrazolo[4,3-c]pyridine-3-carboxamide] | > 100 µM | 1 to 25 µM | 5 to 10 µM
20 | CN(CC(C)(C)O)C(=O)c1n[nH]c2c1CN(C(=O)c1cc3ccccc3[nH]1)CC2 [Example 43, N-(2-hydroxy-2-methylpropyl)-5-(1H-indole-2-carbonyl)-N-methyl-1H,4H,5H,6H,7H-pyrazolo[4,3-c]pyridine-3-carboxamide] | > 32 µM | < 1 µM | 5 to 10 µM
21 | O=C(c1cc2ccccc2[nH]1)N1CCc2[nH]nc(C(=O)N3CC(CCO)C3)c2C1 [Example 44, 2-{1-[5-(1H-indole-2-carbonyl)-1H,4H,5H,6H,7H-pyrazolo[4,3-c]pyridine-3-carbonyl]azetidin-3-yl}ethan-1-ol] | > 100 µM | 1 to 25 µM | < 100 µM
